Laboratory results published in patent US4914201A, “Indolo[1,2-d][1,4]benzodiazepin-6(7H)-thiones” (Hoechst-Roussel Pharmaceuticals Inc., priority 1989, dated 1990).

tested on: 2-phenyl-1,4-benzoquinone-induced writhing in mice; experiment: 2-phenyl-1,4-benzoquinone-induced writhing test in mice (analgesia, phenylquinone writhing, PQW); type: in vivo
Source text: The compounds of Formula I of the present invention are useful as analgesic agents due to their ability to alleviate pain in mammals. […] Exptl. Biol. Med., 95, 729 (1957)].

SMILES	Analgesic PQW, % Inhibition of Writhing at 20 mg/kg., s.c. [%]
Cc1nnc2n1-c1ccccc1-c1cc3ccccc3n1C2 [Example 7, 1-Methyl-4H-indolo[1,2-d][1,2,4]triazolo[4,3-a][1,4]benzodiazepine]	37
Cc1nnc2n1-c1ccccc1-c1c(Cl)c3ccccc3n1C2 [Example 8, 10-chloro-1-methyl-4H-indolo-[1,2-d][1,2,4]triazolo[4,3-a]-[1,4]benzodiazepine]	51
Cc1nnc2n1-c1ccc(Cl)cc1-c1cc3ccccc3n1C2 [Example 9, 12-Chloro-1-methyl-4H-indolo[1,2-d][1,2,4]triazolo[4,3-a][1,4]benzodiazepine]	46
Cc1nnc2n1-c1ccc(Cl)cc1-c1c(Cl)c3ccccc3n1C2 [Example 11, 10,12-Dichloro-1-methyl-4H-indolo[1,2-d][1,2,4]triazolo[4,3-a][1,4]benzodiazepine]	32
